This is an account of results in PubChem BioAssay (NCI).

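Assay format: 96-well plates, 48-hour exposure. GI50 marks 50% less growth. TGI denotes the concentration required for complete inhibition of growth.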 A value given as a limit tells only on which side of the number the result lay.

Experiment in all cases: NCI tumour cell line growth inhibition, 48 h
Assay [1] concerns LOX IMVI melanoma.
Assay [2] has as its system HOP-92 NSCLC.
The test system of assay [3] is SK-OV-3 ovarian.
The subject of assay [4] is HT29 colon.
The test system of assay [5] is SNB-78 CNS.
For assay [6], the system named is HCC-2998 colon.
Assay [7] concerns OVCAR-8 ovarian.
The subject of assay [8] is K-562 leukemia.
The subject of assay [9] is P388 leukemia.
The subject of assay [10] is MCF7 breast.
Assay [11] concerns P388/ADR leukemia.
Assay [12] deals with MDA-N.

As for `Nc1nc(SCc2ccc([N+](=O)[O-])cc2)nc2c1ncn2C1OC(COP(=O)(O)O)C(O)C1O` (stereo not drawn), the TGI in assay [1], in assay [2], in [3], in assay [4], in assay [5] and in [6] was more than 100 µM in each case. Moreover, the TGI in [7] and in [8] was more than 100 µM throughout.

Regarding `CC(NC(=O)C(C)NC(=O)C(N)CCP(C)(=O)O)C(=O)O` (stereo not drawn), the TGI in assay [9] is more than 31.6 µM; in assay [1], more than 100 µM; in assay [2] it was more than 100 µM; in assay [3], more than 100 µM; in assay [4] it was more than 100 µM; in assay [5], more than 100 µM. The TGI in [10], in [6], in assay [11], in [7] and in assay [8] was more than 100 µM each time.

For `C[Si](C)(OCCS(=O)(=O)O)C1(Cc2cccc3ccccc23)S(=O)(=O)OCCOS1(=O)=O`, the TGI in assay [1] was found to be 34 µM; in assay [2] it was 50.7 µM; in assay [12], 41.9 µM; in assay [3] it was 35.6 µM; in assay [10], 39.5 µM; in assay [6], 30.7 µM. The TGI in [7] was 52.4 µM; in assay [8] it was more than 100 µM.

With `Cc1ccc(N2Cc3c(ccc4ccccc34)OP2(=O)Oc2ccc(Cl)c(C)c2)cc1` (stereo not drawn), the TGI in [9], in assay [1], in assay [2], in assay [3], in assay [4] and in assay [5] was more than 100 µM throughout. Moreover, the TGI in [10], in assay [6], in assay [11], in [7] and in [8] was more than 100 µM each time.

`CC(C)OP(=O)(OC(C)C)/C(I)=N/Nc1ccc([N+](=O)[O-])cc1`: the TGI in assay [2], in [3], in [4], in assay [5], in assay [6] and in assay [7] was more than 100 µM each time. In assay [8], this compound displayed a TGI of more than 100 µM.

As for `Cc1ccc(N=N/C(=N\NC(=O)c2ccc(C)cc2)c2ccc(N(CCC#N)CCC#N)cc2C)cc1`, the TGI in [1], in [2], in assay [12], in assay [3], in [4] and in [10] was more than 100 µM in each case. Moreover, the TGI in [6], in assay [7] and in [8] was more than 100 µM each time.

Turning to `N[C@H](C(=O)O)[C@H]1ON=C(Cl)[C@@H]1O`, the TGI in assay [9] is 17.5 µM; in assay [1], more than 550 µM; in assay [2] it was 269 µM; in assay [3] it was more than 231 µM; in assay [4], more than 296 µM; in assay [5] it was more than 550 µM. Also, the TGI was more than 550 µM in assay [10]; more than 173 µM in assay [6]; 46.4 µM in [11]; more than 550 µM in assay [7]; more than 550 µM in [8]. Also, the GI50 is 1.54 µM in assay [1]; 52.2 µM in [2]; 4.86 µM in assay [3]; 1.24 µM in assay [4]; 0.374 µM in assay [10]; 5.62 µM in assay [6]. The figures for the GI50 in [7] and in assay [8] were 12.2 µM and 4.15 µM, respectively.

With `COc1ccc(-n2cnnc2-c2nsc3ccccc23)cc1`, the TGI in [1], in assay [2], in assay [4], in [5], in assay [6] and in assay [7] was more than 100 µM in each case. In addition, the TGI in assay [8] is more than 100 µM.

Take `CC1=Nc2nc(Cl)cn2C(=O)C1(Cl)Cl`: the TGI in [1], in assay [12], in [3], in assay [4], in assay [10] and in assay [6] was more than 10 µM in each case. Further, the TGI in [7] and in [8] was more than 10 µM in each case.
